# Test results from PubChem BioAssay AID698 (NMMLSC, 2007).
# Active and inactive are the calls of the source. The rule behind the calls is not given here.
# Biological target: N-formyl peptide receptor 2 (Homo sapiens) (UniProt P25090)
# Assay: inhibition of ligand-evoked FPRL1 calcium flux – cell-based, calcium response, confirmation (AID 698)
# Conditions: FPRL1-expressing cells, ligand-induced calcium response, antagonist mode; stronger effect = higher value; concentration not given here
# N-formyl peptide receptor 2 (Homo sapiens), sequence (P25090 whole entry, looked up): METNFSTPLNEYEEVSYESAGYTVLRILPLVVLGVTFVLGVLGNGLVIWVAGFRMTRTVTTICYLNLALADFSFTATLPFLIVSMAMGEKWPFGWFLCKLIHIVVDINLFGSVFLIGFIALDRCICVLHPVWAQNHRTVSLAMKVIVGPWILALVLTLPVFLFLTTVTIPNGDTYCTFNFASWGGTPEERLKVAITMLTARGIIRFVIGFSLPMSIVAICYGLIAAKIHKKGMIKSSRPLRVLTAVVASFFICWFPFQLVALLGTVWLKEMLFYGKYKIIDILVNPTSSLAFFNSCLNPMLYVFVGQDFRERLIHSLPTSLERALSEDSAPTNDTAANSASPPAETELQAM
row,Compound,inhibition
1,Nc1ccc(Nc2ccccc2N)cc1,69.5% (inactive)
2,CCOc1cc(C(=O)NCc2nnc(SCC(=O)OC)n2C)cc(OCC)c1OCC,0% (inactive)
3,CCOC(=O)CSc1nnc(CNC(=O)c2cc(OCC)c(OCC)c(OCC)c2)n1C,0% (inactive)
4,COc1ccc(-c2cn3cccnc3n2)cc1NC(=O)C1CC1,98.1%

# More lines, now with the values ahead:
row,inhibition,Compound
1,96.3%,COc1ccc(-c2cc(C(F)(F)F)nc(N3CCN(Cc4ccccc4)CC3)n2)cc1OC
2,93.4%,CC(=O)OCCNc1cc(N2CCN(C)CC2)c2noc3c2c1C(=O)c1ccccc1-3
3,0% (inactive),O=C(O)CCCNc1cc(N2CCC3(CC2)OCCO3)c2noc3c2c1C(=O)c1ccccc1-3
